Reference: publication PMC12527173, “Cytotoxic, anti-inflammatory, antioxidant, and anti-glyoxalase-I evaluation of chelating substances: In silico and in vitro study” (PLOS One, 2025)
Read-outs that look alike come from different tables or passages of the source. One block for each compound: values may come before it.

What was measured:
[1] = SRB cytotoxicity assay, normal PDL fibroblasts; format: cell-based; settings: normal periodontal ligament (PDL) fibroblasts, 72 h incubation, 0.1–200 µM range, read-out: Cytotoxicity (as of %Control) IC50 value PDL fibroblasts
Procedure: (§1) The cancer cell lines were cultured in DMEM supplemented with 10% FBS (Bio Whittaker, Verviers, Belgium), HEPES Buffer (10 mM), gentamicin (50 µg/mL), L-glutamine (100 μg/mL), streptomycin ([…]), penicillin (100 µg/mL), and 4-(2-hydroxyethyl)-1-piperazineethanesulfonic acid (HEPES) Buffer (Sigma, St. Luis, MO, USA). The Sulforhodamine B used was obtained from Santa Cruz Biotechnology, Inc. in Texas, USA. […] Periodontal ligament fibroblasts (PDL) were utilized to assess specific cytotoxicity. Cancer cell lines that have survived offer several benefits. They provide a consistent and uninterrupted source of cells, so bypassing any ethical concerns related to the use of human tissue. Additionally, they are cost-effective. The cytotoxicity levels were assessed using the Sulforhodamine B (SRB) colorimetric assay, provided by Santa Cruz Biotechnology, Inc. in Texas, USA. The Spectro Scan 80D UV-VIS spectrophotometer, manufactured by Sedico Ltd. in Nicosia, Cyprus, was employed for this cytotoxicity screening. The cells were co-incubated with substances or a reference agent at various doses ranging from 5 to 200 μg/mL. […] The reduction in cell viability was analyzed by plotting Dose-response curves and expressing the data as a percentage of the control optical density. The IC50 values were obtained using regression analysis.

[2] = system: CACO2 colorectal cancer cell line; experiment: SRB cytotoxicity assay, CACO2; format: cell-based; settings: Homo sapiens, Caco-2, 72 h incubation, n = 12, read-out: Cytotoxicity (as of %Control) IC50 value CACO2
Procedure: as §1

[3] = system: T47D breast cancer cell line; experiment: SRB cytotoxicity assay, T47D; format: cell-based; settings: Homo sapiens, 72 h incubation, n = 12, read-out: Cytotoxicity (as of %Control) IC50 value T47D mammary malignancy
Procedure: as §1

[4] = system: HCT116 colorectal cancer cell line; experiment: SRB cytotoxicity assay, HCT116; format: cell-based; settings: Homo sapiens, HCT-116, 72 h incubation, n = 12, read-out: Cytotoxicity (as of %Control) IC50 value HCT116
Procedure: as §1

[5] = system: SW620 colorectal cancer cell line; experiment: SRB cytotoxicity assay, SW620; format: cell-based; settings: Homo sapiens, SW-620, 72 h incubation, n = 12, read-out: Cytotoxicity (as of %Control) IC50 value SW620
Procedure: as §1

[6] = system: HT-29 colorectal cancer cell line; experiment: SRB cytotoxicity assay, HT29; format: cell-based; settings: Homo sapiens, 72 h incubation, n = 12, read-out: Cytotoxicity (as of %Control) IC50 value HT29
Procedure: as §1

[7] = system: Human PC3 prostate cancer cell line; experiment: SRB cytotoxicity assay, PC3; format: cell-based; settings: 72 h incubation, n = 12, read-out: Cytotoxicity (as of %Control) IC50 value PC3 prostate malignancy
Procedure: as §1

[8] = system: A549 lung cancer cell line; experiment: SRB cytotoxicity assay, A549; format: cell-based; settings: Homo sapiens, 72 h incubation, n = 12, read-out: Cytotoxicity (as of %Control) IC50 value A549 lung malignancy
Procedure: as §1

[9] = target: T1, human recombinant Glo-I enzyme (rhGlo-I) (Homo sapiens, UniProt Q04760); experiment: Glyoxalase-I (Glo-I) enzyme inhibition assay; format: biochemical; settings: for Maximum (descriptive statistics of enzyme inhibition): highest mean inhibition over the tested concentrations; for Maximum (descriptive statistics of enzyme inhibition) / Minimum (descriptive statistics of enzyme inhibition): in % (unit assumed); for IC50: human recombinant Glo-I, triplicates, read-out: IC50 µM ± SD; for Minimum (descriptive statistics of enzyme inhibition): lowest mean inhibition over the tested concentrations
T1 construct: N-terminal Met and 6-His tag (N); purchased R&D Systems; host or cells: E. coli
T1 sequence (Q04760 2-184 limits assumed): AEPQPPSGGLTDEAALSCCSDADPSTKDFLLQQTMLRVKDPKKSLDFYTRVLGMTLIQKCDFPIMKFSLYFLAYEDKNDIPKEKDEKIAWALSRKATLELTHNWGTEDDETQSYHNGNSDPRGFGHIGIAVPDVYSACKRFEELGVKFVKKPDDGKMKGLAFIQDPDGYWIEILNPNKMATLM
Procedure: Solvents and chemicals were procured from Sigma-Aldrich Co. and Acros (ThermoFisher Scientific, New Jersey, USA). […] The enzyme was obtained from R&D Systems® Corporation in the USA. Synthetic compounds were tested for their inhibitory effects on the enzyme using a 10 mM DMSO stock concentration in triplicates. The manufacturer’s protocol from R & D Systems, Inc. in Minneapolis, MN, USA was followed for the in vitro experiments. The reconstituted Glo-I enzyme (0.5 mg/mL) was thawed after being stored at −70°C in sterile deionized water. […] The monitoring was done at a wavelength of 240 nm for 200 seconds at 37°C. The substrate mixture was freshly concocted with a concentration of 100 mM glutathione and 100 mM methylglyoxal (MG) in assay buffer containing 0.5 M sodium phosphate dibasic/monobasic. It was then left undisturbed at room temperature for 15 minutes […]. The selected compounds for investigation are subsequently produced in testing concentration ranges using a 0.1 M solution of sodium phosphate dibasic/monobasic with a pH range of 7–7.2. The blank contained an assay buffer with MG substrate. The test compounds were combined with human recombinant Glo-I (50 µM) in a 96-well plate to determine their kinetic behavior.

[10] = system: A375 human skin cancer cell line; experiment: SRB cytotoxicity assay, A375; format: cell-based; settings: A-375, 72 h incubation, n = 12, read-out: Cytotoxicity (as of %Control) IC50 value A375 skin melanoma
Procedure: as §1

[11] = system: Breast cancer cell line MCF7; experiment: SRB cytotoxicity assay, MCF7; format: cell-based; settings: Homo sapiens, 72 h incubation, n = 12, read-out: Cytotoxicity (as of %Control) IC50 value MCF7 mammary malignancy
Procedure: as §1

[12] = system: HeLa uterine cervix adenocarcinoma cell line; experiment: SRB cytotoxicity assay, HeLa; format: cell-based; settings: Homo sapiens, 72 h incubation, n = 12, read-out: Cytotoxicity (as of %Control) IC50 value Hela cervix malignancy
Procedure: as §1

[13] = system: PANC1 pancreatic cell line; experiment: SRB cytotoxicity assay, PANC1; format: cell-based; settings: Homo sapiens, PANC-1, 72 h incubation, n = 12, read-out: Cytotoxicity (as of %Control) IC50 value PANC1
Procedure: as §1

[14] = read-out: Trial one (%inhibtion)
[15] = read-out: Trial three (%inhibtion)
[16] = read-out: Trial two (%inhibtion)

Structure (SMILES): C[C@]12CC[C@@H]3c4ccc(O)c(O)c4CC[C@H]3[C@@H]1CC[C@@H]2O [4-hydroxy-estradiol]
- IC50 at 72 h [1]: > 200 µM
- IC50 [2]: 107 ± 4.77 µM
- IC50 [3]: 51.5 ± 5.2 µM
- IC50 [4]: 124 ± 7.8 µM
- IC50 [5]: 142 ± 16.5 µM
- IC50 [6]: 118 ± 4.17 µM
- IC50 [7]: 82.2 ± 8.56 µM
- IC50 [8]: 15.2 ± 1.34 µM
- inhibition at 0.09765 µM [9, 14]: 18%
- inhibition at 0.09765 µM [9, 15]: 20.6%
- inhibition at 0.09765 µM [9, 16]: 21.7%
- inhibition at 0.1953 µM [9, 14]: 57.6%
- inhibition at 0.1953 µM [9, 15]: 59.2%
- inhibition at 0.1953 µM [9, 16]: 55.5%
- inhibition at 0.3906 µM [9, 14]: 69.7%
- inhibition at 0.3906 µM [9, 15]: 66%
- inhibition at 0.3906 µM [9, 16]: 67.1%
- inhibition at 0.7812 µM [9, 14]: 80.8%
- inhibition at 0.7812 µM [9, 15]: 81.3%
- inhibition at 0.7812 µM [9, 16]: 82.9%
- inhibition at 1.562 µM [9, 14]: 99.8%
- inhibition at 1.562 µM [9, 15]: 94%
- inhibition at 1.562 µM [9, 16]: 91.4%
- inhibition at 3.125 µM [9, 14]: 93%
- inhibition at 3.125 µM [9, 15]: 95.6%
- inhibition at 3.125 µM [9, 16]: 96.1%
- inhibition at 6.25 µM [9, 14]: 95.6%
- inhibition at 6.25 µM [9, 15]: 96.1%
- inhibition at 6.25 µM [9, 16]: 97.7%
- inhibition at 12.5 µM [9, 14]: 99.8%
- inhibition at 12.5 µM [9, 15]: 99.3%
- inhibition at 12.5 µM [9, 16]: 98.7%
- inhibition at 25 µM [9, 14]: 102%
- inhibition at 25 µM [9, 15]: 104%
- inhibition at 25 µM [9, 16]: 102%
- inhibition at 50 µM [9, 14]: 102%
- inhibition at 50 µM [9, 15]: 101%
- inhibition at 50 µM [9, 16]: 101%
- Maximum (descriptive statistics of enzyme inhibition) [9]: 102.5
- IC50 [9]: 0.22 µM
- Minimum (descriptive statistics of enzyme inhibition) [9]: 20.07
- IC50 [10]: 47.1 ± 1.9 µM
- IC50 [11]: 139.8 ± 1.13 µM
- IC50 [12]: 29.8 ± 4.74 µM
- IC50 [13]: 66.9 ± 2.69 µM

- inhibition at 3.125 µM [9, 14]: 10.9%
- inhibition at 3.125 µM [9, 15]: 20.2%
- inhibition at 3.125 µM [9, 16]: 4.72%
- inhibition at 6.25 µM [9, 14]: 19.1%
- inhibition at 6.25 µM [9, 15]: 24%
- inhibition at 6.25 µM [9, 16]: 10%
- inhibition at 12.5 µM [9, 14]: 29.5%
- inhibition at 12.5 µM [9, 15]: 34.3%
- inhibition at 12.5 µM [9, 16]: 19.2%
- inhibition at 25 µM [9, 14]: 47.9%
- inhibition at 25 µM [9, 15]: 43.5%
- inhibition at 25 µM [9, 16]: 32.4%
- inhibition at 50 µM [9, 14]: 53.5%
- inhibition at 50 µM [9, 15]: 54.5%
- inhibition at 50 µM [9, 16]: 44.3%
- Maximum (descriptive statistics of enzyme inhibition) [9]: 50.76
- IC50 [9]: 36.4 ± 16.1 µM
- Minimum (descriptive statistics of enzyme inhibition) [9]: 11.95
Structure (SMILES): O=c1cc(O)cc(/C=C/c2ccc(O)c(O)c2)o1 [Hispidin]
- IC50 at 72 h [1]: > 200 µM
- IC50 [2]: 74.3 ± 1.13 µM
- IC50 [3]: 52.6 ± 0.69 µM
- IC50 [4]: 198 ± 12.2 µM
- IC50 [5]: 34.3 ± 6.52 µM
- IC50 [6]: 82.75 ± 0.78 µM
- IC50 [7]: 139 ± 13.6 µM
- IC50 [8]: 26 ± 5.22 µM
- IC50 [10]: 98.9 ± 9 µM
- IC50 [11]: 384 ± 7.57 µM
- IC50 [12]: 122 ± 1.34 µM
- IC50 [13]: 130 ± 2.08 µM
